Assay results reported in patent publication US6737383B1, “Herbicidal oxadiazolidines” (priority 1999, dated 2004).

Columns and labels:
soybean = test: Test B pre/postemergence soybean; assay type: in vivo, Glycine max
Method in brief: (§1)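 Herbicidal effect was estimated by eye on a ten-point control scale after plants spent twelve to sixteen days in a greenhouse following soil or foliar treatment. Foliar sprays targeted plants at one to four leaves; all doses were formulated in a non-phytotoxic solvent with surfactant.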

sugar beet = test: Test B pre/postemergence sugar beet; assay type: in vivo, Beta vulgaris
Method in brief: as §1

velvetleaf = test: Test B pre/postemergence velvetleaf; assay type: in vivo, Abutilon theophrasti
Method in brief: as §1

cocklebur = test: Test B pre/postemergence cocklebur; assay type: in vivo, Xanthium strumarium
Method in brief: as §1

pigweed = test: Test B pre/postemergence pigweed; assay type: in vivo, Amaranthus retroflexus
Method in brief: as §1

crabgrass = test: Test B pre/postemergence crabgrass; assay type: in vivo, Digitaria sanguinalis
Method in brief: as §1

corn = test: Test B pre/postemergence corn; assay type: in vivo, Zea mays
Method in brief: as §1

purple nutsedge = test: Test B pre/postemergence purple nutsedge; assay type: in vivo, Cyperus rotundus
Method in brief: as §1

rape = test: Test B pre/postemergence rape; assay type: in vivo, Brassica napus
Method in brief: as §1

giant foxtail = test: Test B pre/postemergence giant foxtail; assay type: in vivo, Setaria faberii
Method in brief: as §1

bedstraw = test: Test B pre/postemergence bedstraw; assay type: in vivo, Galium aparine
Method in brief: as §1

morningglory = test: Test B pre/postemergence morningglory; assay type: in vivo, Ipomoea hederacea
Method in brief: as §1

surinam grass = test: Test B pre/postemergence surinam grass; assay type: in vivo, Brachiaria decumbens
Method in brief: as §1

wild oat = test: Test B pre/postemergence wild oat; assay type: in vivo, Avena fatua
Method in brief: as §1

wheat = test: Test B pre/postemergence wheat; assay type: in vivo, Triticum aestivum
Method in brief: as §1

blackgrass = test: Test B pre/postemergence blackgrass; assay type: in vivo, Alopecurus myosuroides
Method in brief: as §1

[1] = Postemergence, Rate 62 g/ha, scale of 0 to 10, 0 is no effect, 10 is complete control
[2] = Postemergence, Rate 125 g/ha, scale 0 to 10, 0 is no effect, 10 is complete control
[3] = Postemergence, Rate 500 g/ha, scale 0 to 10, 0 is no effect, 10 is complete control
[4] = Preemergence, Rate 62 g/ha, scale 0 to 10 (0 no effect, 10 complete control)
[5] = Preemergence, Rate 125 g/ha, scale 0 to 10, 0 is no effect, 10 is complete control
[6] = Preemergence, Rate 500 g/ha, scale of 0 to 10 where 0 is no effect and 10 is complete control
[7] = Rate 250 g/ha, Postemergence, scale of 0 to 10 where 0 is no effect and 10 is complete control

For `CC(C)=CCn1c(=O)on(C(=O)N(c2ccc(Cl)cc2)C(C)C)c1=O` [Compound 545], the “Soybean plant response rating” value (soybean; [1]) was 1, the “Soybean plant response rating” value (soybean; [2]) was 1 and the “Plant response rating, Soybean” value (soybean; [3]) was 2. For the same compound, the “Soybean plant response rating” value (soybean; [4]) was 0, the “Soybean plant response rating” value (soybean; [5]) was 0 and the “Soybean plant response rating (0 to 10 scale)” value (soybean; Preemergence, Rate 250 g/ha) was 0. The “Soybean plant response rating” value (soybean; [6]) was 0, the “Plant response rating, Soybean” value (soybean; [7]) was 2 and the “Sugarbeets plant response rating” value (sugar beet; [1]) was 0. The “Sugarbeets plant response rating” value (sugar beet; [2]) was 0, the “Plant response rating, Sugarbeets” value (sugar beet; [3]) was 3 and the “Sugarbeets plant response rating” value (sugar beet; [4]) was 0. For the same compound, the “Sugarbeets plant response rating” value (sugar beet; [5]) was 0, the “Sugarbeets plant response rating (0 to 10 scale)” value (sugar beet; Preemergence, Rate 250 g/ha) was 2 and the “Sugarbeets plant response rating” value (sugar beet; [6]) was 6. The “Plant response rating, Sugarbeets” value (sugar beet; [7]) was 0, the “Velvetleaf plant response rating” value (velvetleaf; [1]) was 0 and the “Velvetleaf plant response rating” value (velvetleaf; [2]) was 3. For the same compound, the “Velvetleaf plant response rating” value (velvetleaf; [4]) was 0, the “Velvetleaf plant response rating” value (velvetleaf; [5]) was 0 and the “Velvetleaf plant response rating (0 to 10 scale)” value (velvetleaf; Preemergence, Rate 250 g/ha) was 0. The “Velvetleaf plant response rating” value (velvetleaf; [6]) was 0, the “Plant response rating, Velvetleaf” value (velvetleaf; [7]) was 6 and the “Cocklebur plant response rating” value (cocklebur; [1]) was 0. For the same compound, the “Cocklebur plant response rating” value (cocklebur; [2]) was 3, the “Cocklebur plant response rating” value (cocklebur; [4]) was 0 and the “Cocklebur plant response rating” value (cocklebur; [5]) was 0. For the same compound, the “Cocklebur plant response rating (0 to 10 scale)” value (cocklebur; Preemergence, Rate 250 g/ha) was 0, the “Cocklebur plant response rating” value (cocklebur; [6]) was 0 and the “Plant response rating, Cocklebur” value (cocklebur; [7]) was 8. The “Redroot pigweed plant response rating” value (pigweed; [1]) was 0, the “Redroot pigweed plant response rating” value (pigweed; [2]) was 0 and the “Plant response rating, Redroot pigweed” value (pigweed; [3]) was 0. For the same compound, the “Redroot pigweed plant response rating” value (pigweed; [4]) was 3, the “Redroot pigweed plant response rating” value (pigweed; [5]) was 8 and the “Redroot pigweed plant response rating (0 to 10 scale)” value (pigweed; Preemergence, Rate 250 g/ha) was 9. For the same compound, the “Redroot pigweed plant response rating” value (pigweed; [6]) was 10, the “Plant response rating, Redroot pigweed” value (pigweed; [7]) was 0 and the “Crabgrass plant response rating” value (crabgrass; [1]) was 0. For the same compound, the “Crabgrass plant response rating” value (crabgrass; [2]) was 2, the “Plant response rating, Crabgrass” value (crabgrass; [3]) was 9 and the “Crabgrass plant response rating” value (crabgrass; [4]) was 8. For the same compound, the “Crabgrass plant response rating” value (crabgrass; [5]) was 10, the “Crabgrass plant response rating (0 to 10 scale)” value (crabgrass; Preemergence, Rate 250 g/ha) was 10 and the “Crabgrass plant response rating” value (crabgrass; [6]) was 10. The “Plant response rating, Crabgrass” value (crabgrass; [7]) was 3, the “Corn plant response rating” value (corn; [1]) was 0 and the “Corn plant response rating” value (corn; [2]) was 0. The “Plant response rating, Corn” value (corn; [3]) was 0, the “Corn plant response rating” value (corn; [4]) was 0 and the “Corn plant response rating” value (corn; [5]) was 0. The “Corn plant response rating (0 to 10 scale)” value (corn; Preemergence, Rate 250 g/ha) was 0, the “Corn plant response rating” value (corn; [6]) was 0 and the “Plant response rating, Corn” value (corn; [7]) was 0. The “Nutsedge plant response rating” value (purple nutsedge; [1]) was 0, the “Nutsedge plant response rating” value (purple nutsedge; [4]) was 0 and the “Nutsedge plant response rating” value (purple nutsedge; [5]) was 0. For the same compound, the “Nutsedge plant response rating (0 to 10 scale)” value (purple nutsedge; Preemergence, Rate 250 g/ha) was 0, the “Nutsedge plant response rating” value (purple nutsedge; [6]) was 0 and the “Rape plant response rating” value (rape; [1]) was 0. For the same compound, the “Rape plant response rating” value (rape; [2]) was 0, the “Plant response rating, Rape” value (rape; [3]) was 3 and the “Rape plant response rating” value (rape; [4]) was 0. For the same compound, the “Rape plant response rating” value (rape; [5]) was 0, the “Rape plant response rating (0 to 10 scale)” value (rape; Preemergence, Rate 250 g/ha) was 0 and the “Rape plant response rating” value (rape; [6]) was 2. For the same compound, the “Plant response rating, Rape” value (rape; [7]) was 0, the “Giant foxtail plant response rating” value (giant foxtail; [1]) was 0 and the “Giant foxtail plant response rating” value (giant foxtail; [2]) was 0. For the same compound, the “Plant response rating, Giant foxtail” value (giant foxtail; [3]) was 5, the “Giant foxtail plant response rating” value (giant foxtail; [4]) was 10 and the “Giant foxtail plant response rating” value (giant foxtail; [5]) was 10. The “Giant foxtail plant response rating (0 to 10 scale)” value (giant foxtail; Preemergence, Rate 250 g/ha) was 10, the “Giant foxtail plant response rating” value (giant foxtail; [6]) was 10 and the “Plant response rating, Giant foxtail” value (giant foxtail; [7]) was 3. The “Bedstraw plant response rating” value (bedstraw; [1]) was 0, the “Bedstraw plant response rating” value (bedstraw; [2]) was 0 and the “Plant response rating, Bedstraw” value (bedstraw; [3]) was 7. The “Bedstraw plant response rating” value (bedstraw; [4]) was 0, the “Bedstraw plant response rating” value (bedstraw; [5]) was 0 and the “Bedstraw plant response rating (0 to 10 scale)” value (bedstraw; Preemergence, Rate 250 g/ha) was 0. The “Bedstraw plant response rating” value (bedstraw; [6]) was 10, the “Plant response rating, Bedstraw” value (bedstraw; [7]) was 2 and the “Morningglory plant response rating” value (morningglory; [1]) was 4. For the same compound, the “Morningglory plant response rating” value (morningglory; [2]) was 4, the “Morningglory plant response rating” value (morningglory; [4]) was 0 and the “Morningglory plant response rating” value (morningglory; [5]) was 0. The “Morningglory plant response rating (0 to 10 scale)” value (morningglory; Preemergence, Rate 250 g/ha) was 0, the “Morningglory plant response rating” value (morningglory; [6]) was 8 and the “Plant response rating, Morningglory” value (morningglory; [7]) was 10. The “B. signalgrass plant response rating” value (surinam grass; [1]) was 0, the “B. signalgrass plant response rating” value (surinam grass; [2]) was 0 and the “Plant response rating, B. signalgrass” value (surinam grass; [3]) was 2. For the same compound, the “B. signalgrass plant response rating” value (surinam grass; [4]) was 0, the “B. signalgrass plant response rating” value (surinam grass; [5]) was 0 and the “B. signalgrass plant response rating (0 to 10 scale, 0 is no effect, 10 is complete control)” value (surinam grass; Preemergence, Rate 250 g/ha) was 0. The “B. signalgrass plant response rating” value (surinam grass; [6]) was 5, the “Plant response rating, B. signalgrass” value (surinam grass; [7]) was 2 and the “Wild oats plant response rating” value (wild oat; [1]) was 0. For the same compound, the “Wild oats plant response rating” value (wild oat; [2]) was 0, the “Plant response rating, Wild oats” value (wild oat; [3]) was 0 and the “Wild oats plant response rating” value (wild oat; [4]) was 0. The “Wild oats plant response rating” value (wild oat; [5]) was 0, the “Wild oats plant response rating (0 to 10 scale)” value (wild oat; Preemergence, Rate 250 g/ha) was 2 and the “Wild oats plant response rating” value (wild oat; [6]) was 6. The “Plant response rating, Wild oats” value (wild oat; [7]) was 0, the “Wheat plant response rating” value (wheat; [1]) was 0 and the “Wheat plant response rating” value (wheat; [2]) was 0. The “Plant response rating, Wheat” value (wheat; [3]) was 0, the “Wheat plant response rating” value (wheat; [4]) was 0 and the “Wheat plant response rating” value (wheat; [5]) was 0. For the same compound, the “Wheat plant response rating (0 to 10 scale)” value (wheat; Preemergence, Rate 250 g/ha) was 0, the “Wheat plant response rating” value (wheat; [6]) was 2 and the “Plant response rating, Wheat” value (wheat; [7]) was 0. The “Blackgrass plant response rating” value (blackgrass; [1]) was 0, the “Blackgrass plant response rating” value (blackgrass; [2]) was 0 and the “Plant response rating, Blackgrass” value (blackgrass; [3]) was 0. The “Blackgrass plant response rating” value (blackgrass; [4]) was 0, the “Blackgrass plant response rating” value (blackgrass; [5]) was 0 and the “Blackgrass plant response rating (0 to 10 scale)” value (blackgrass; Preemergence, Rate 250 g/ha) was 2. For the same compound, the “Blackgrass plant response rating” value (blackgrass; [6]) was 9 and the “Plant response rating, Blackgrass” value (blackgrass; [7]) was 0.
